Laboratory results published in ChEMBL document CHEMBL5370541, “Targeting VPS34 in autophagy: An update on pharmacological small-molecule compounds” (Eur J Med Chem, 2023).

Assays:
[1] = target: T1, Phosphatidylinositol 3-kinase catalytic subunit type 3 (Homo sapiens, UniProt Q8NEB9); experiment: Inhibition of VPS34 (unknown origin) by ADP hunter plus assay
MCF7 [2] = experiment: Inhibition of starvation-induced autophagy in human MCF7 cells expressing eGFP-tagged LC3; format: functional, cell-based
[3] = target: T1, Phosphatidylinositol 3-kinase catalytic subunit type 3; experiment: Binding affinity to VPS34 (unknown origin) assessed as dissociation constant by KINOMEscan analysis
MCF7 [4] = experiment: Inhibition of rapamycin-induced autophagy in human MCF7 cells expressing eGFP-tagged LC3; format: functional, cell-based

T1 sequence (Q8NEB9 whole entry): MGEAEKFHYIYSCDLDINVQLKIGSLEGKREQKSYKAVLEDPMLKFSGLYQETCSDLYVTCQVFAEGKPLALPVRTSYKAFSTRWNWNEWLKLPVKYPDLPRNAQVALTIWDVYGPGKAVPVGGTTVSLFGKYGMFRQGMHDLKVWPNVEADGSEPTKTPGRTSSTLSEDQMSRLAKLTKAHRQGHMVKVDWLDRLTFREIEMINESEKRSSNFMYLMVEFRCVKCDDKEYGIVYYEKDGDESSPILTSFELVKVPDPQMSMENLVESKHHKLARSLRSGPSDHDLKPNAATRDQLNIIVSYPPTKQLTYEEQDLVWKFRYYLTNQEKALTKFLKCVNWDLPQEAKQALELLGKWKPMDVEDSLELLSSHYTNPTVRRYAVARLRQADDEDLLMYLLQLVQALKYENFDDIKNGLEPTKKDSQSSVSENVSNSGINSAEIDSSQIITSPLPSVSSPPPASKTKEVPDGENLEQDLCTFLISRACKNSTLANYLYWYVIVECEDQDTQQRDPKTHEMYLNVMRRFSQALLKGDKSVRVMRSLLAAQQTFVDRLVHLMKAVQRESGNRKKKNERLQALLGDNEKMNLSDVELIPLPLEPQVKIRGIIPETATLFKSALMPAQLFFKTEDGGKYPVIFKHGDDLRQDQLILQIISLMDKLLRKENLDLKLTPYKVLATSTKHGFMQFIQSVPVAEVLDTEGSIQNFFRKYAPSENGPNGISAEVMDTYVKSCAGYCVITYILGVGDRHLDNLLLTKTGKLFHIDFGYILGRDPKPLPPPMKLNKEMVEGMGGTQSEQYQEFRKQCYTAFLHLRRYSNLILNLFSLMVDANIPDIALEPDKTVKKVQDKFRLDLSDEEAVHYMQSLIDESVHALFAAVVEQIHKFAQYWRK

Compound	IC50 [1] [nM]	IC50 (MCF7 [2]) [nM]	also measured
O=C1Nc2ccc(-c3cccnc3)cc2C1=Cc1cc(Br)c(O)c(Br)c1	151	–	–
O=c1cc(N2CCOCC2)nc2n(Cc3cccc(Cl)c3Cl)c(C3CC3)nn12	9.12	–	–
COc1ccc2nccc([C@@H](O)[C@@H]3C[C@@H]4CCN3c3c4[nH]c4nc(Cl)ccc34)c2c1	–	8120	–
C[C@@H]1COCCN1c1cc(N2CCCC[C@@H]2C(F)(F)F)[nH]c(=O)c1	–	–	Kd [3]: 1 nM
O=S(=O)(c1ccc(-c2ccnc3[nH]ccc23)cc1)C1CCCC1	1510	–	–
COc1ccc2nccc([C@@H](O)[C@@H]3C[C@@H]4CCN3c3c4[nH]c4nc(C)c(Br)cc34)c2c1	–	40	IC50 (MCF7 [4]): 8 nM
COc1ccc2nccc([C@@H](O)[C@@H]3C[C@@H]4CCN3c3c4[nH]c4nc(C(F)(F)F)ccc34)c2c1	–	5820	–
